Results published in patent US6770650B2, “Cyclic amine derivatives-CCR-3 receptor antagonists” (Syntex (U.S.A.) LLC, priority 1997, dated 2004).
Structures can show the parent of a compound that is named as a salt.

Legend:
[1] = target: T1, CCR-3 receptor (Homo sapiens, UniProt P51677); assay: CCR-3 Receptor Binding Assay, inhibition of 125I eotaxin binding to CCR-3 L1.2 transfectant cells; settings: concentration required to reduce 125I-eotaxin binding to the CCR-3 L1.2 transfected cells by 50%
T1 construct: expressed in transfected cells; host or cells: L1.2 cells (murine pre-B lymphoma line)
T1 sequence (P51677 1-355): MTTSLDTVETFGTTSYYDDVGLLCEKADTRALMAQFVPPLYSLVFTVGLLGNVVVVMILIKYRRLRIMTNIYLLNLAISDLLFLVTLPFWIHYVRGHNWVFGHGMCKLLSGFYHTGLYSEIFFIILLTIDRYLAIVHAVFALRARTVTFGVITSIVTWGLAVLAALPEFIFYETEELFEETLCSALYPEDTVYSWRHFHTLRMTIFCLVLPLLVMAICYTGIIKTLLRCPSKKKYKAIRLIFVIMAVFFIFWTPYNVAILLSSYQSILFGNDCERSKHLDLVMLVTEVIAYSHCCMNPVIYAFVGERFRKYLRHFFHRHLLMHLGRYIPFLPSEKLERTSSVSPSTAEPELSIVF
Procedure: The CCR-3 antagonistic activity of the compounds of the invention was determined by their ability to inhibit the binding of ^125I eotaxin to CCR-3 L1.2 transfectant cells ((see Ponath, P. D. et al., J. Exp. Med., Vol. 183, 2437-2448, (1996)).
The assay was performed in Costar 96-well polypropylene round bottom plates. Test compounds were dissolved in DMSO and then diluted with binding buffer (50 mM HEPES, 1 mM CaCl2, 5 mM MgCl2, 0.5% bovine serum albumin (BSA), 0.02% sodium azide, pH 7.24) such that the final DMSO concentration was 2%. 25 μl of the test solution or only buffer with DMSO (control samples) was added to each well, followed by the addition of 25 μl of ^125I-eotaxin ([…]) (NEX314, New England Nuclear, Boston, Mass.) and 1.5×10^5 of the CCR-3 L1.2 transfected cells in 25 μl binding buffer. The final reaction volume was 75 μl.
After incubating the reaction mixture for 1 h at room temperature, the reaction was terminated by filtering the reaction mixture through polyethylenimine treated Packard Unifilter GF/C filter plate (Packard, Chicago, Ill.). The filters were washed four times with ice cold wash buffer containing 10 mm HEPES and 0.5M sodium chloride (pH 7.2) and dried at 65° C. for approximately 10 min. 25 μl/well of Microscint-20™ scintillation fluid (Packard) was added and the radioactivity retained on the filters was determined by using the Packard TopCount™.
The IC50 value (concentration of test compound required to reduce ^125I-eotaxin binding to the CCR-3 L1.2 transfected cells by 50%) for some of the compounds of the invention was: […]

Molecule | melting point [°C] | IC50 [1] [nM]
Cc1ccc(C(=O)N[C@H](CN2CCN(Cc3ccc(Cl)c(Cl)c3)CC2)C(C)(C)C)cc1.Cl.Cl | 238 to 242 | –
COc1ccc(C(=O)N[C@H](CN2CCN(Cc3ccc(Cl)c(Cl)c3)CC2)C(C)C)cc1.Cl.Cl | 222.5 to 223 | –
1-{1(RS)-[4-(4-Chlorobenzyl)piperazin-1-yl]-2-methylpropyl}-3-(3-methylphenyl)-2-thiourea [compound 107] | – | 1140
Cc1ccc(C(=O)N[C@H](CN2CCN(Cc3ccc(Cl)c(Cl)c3)CC2)C(C)C)cc1 (as salt: HCl) [compound 8, N-{1(S)-[4-(3,4-Dichlorobenzyl)piperazin-1-ylmethyl]-2-methylpropyl}-4-methylbenzamide dihydrochloride salt] | 229 to 229.6 | –
CC(C)C(CN1CCN(Cc2ccc(Cl)c(Cl)c2)CC1)NC(=O)c1ccncc1 (centres unmarked) (as salt: HCl) [compound 20] | 150 to 153 | –
CCCC(CN1CCN(Cc2ccc(Cl)c(Cl)c2)CC1)NC(=O)c1ccc(C)cc1 (centres unmarked) (as salt: HCl) [compound 23] | 199.5 to 203.5 | –
CC(C)C(CN1CCN(Cc2ccc(Cl)c(Cl)c2)CC1)NC(=O)Cc1cccs1 (racemic) [compound 25, N-{1(RS)-[4-(3,4-Dichlorobenzyl)piperazin-1-ylmethyl]-2-methylpropyl}-2-(thiophene-2-yl)acetamide] | – | 1460
CC(C)C(CN1CCN(Cc2ccc(Cl)cc2)CC1)NS(=O)(=O)c1ccc(Cl)cc1 (racemic) [compound 118] | – | 1500
CC(C)C(CN1CCN(Cc2ccc(Cl)c(Cl)c2)CC1)NS(=O)(=O)c1ccc(F)cc1 (stereo in doubt) [compound 117, N-{1(R)-[4-(3,4-Dichlorobenzyl)piperazin-1-ylmethyl]-2-methylpropyl}-4-flourobenzenesulfonamide] | – | 1330
Cc1ccc(C(=O)N[C@H](CN2CCN(Cc3ccc(Cl)c(Cl)c3)CC2)C(C)C)cc1 [compound 8, N-{1(S)-[4-(3,4-Dichlorobenzyl)piperazin-1-ylmethyl]-2-methylpropyl}-4-methylbenzamide dihydrochloride salt] | – | 240
CC(C)[C@@H](CN1CCN(Cc2ccc(Cl)c(Cl)c2)CC1)NC(=O)c1ccc2ccccc2c1 [compound 19, N-{1(S)-[4-(3,4-Dichlorobenzyl)piperazin-1-ylmethyl]-2-methylpropyl}-2-naphthaleneamide] | – | 945
CC(C)C(CN1CCN(Cc2ccc(Cl)c(Cl)c2)CC1)NC(=O)c1ccncc1 (centres unmarked) [compound 20] | – | 952
CCCC(CN1CCN(Cc2ccc(Cl)c(Cl)c2)CC1)NC(=O)c1ccc(C)cc1 (centres unmarked) [compound 23] | – | 1330
CC(C)C(CN1CCN(Cc2ccc(Cl)c(Cl)c2)CC1)NC(=O)c1ccc2ccccc2n1 (centres unmarked) [compound 24] | – | 1370
Cc1ccc(C(=O)N2CCC[C@@H]2CN2CCN(Cc3ccc(Cl)c(Cl)c3)CC2)cc1 [compound 78, {1-(4-Methylbenzoyl)-2(R)-[4-(3,4-dichlorobenzyl)piperazin-1-ylmethyl]}pyrrolidine Dihydrochloride Salt] | – | 5030
CCOc1ccccc1NC(=O)NC(CN1CCN(Cc2ccc(Cl)c(Cl)c2)CC1)C(C)C (centres unmarked) [compound 86] | – | 1160
CC(C)C(CN1CCN(Cc2ccc(Cl)c(Cl)c2)CC1)NC(=O)Nc1cccc(Br)c1 (centres unmarked) [compound 88] | – | 1470
CC(C)C(CN1CCN(Cc2ccc(Cl)cc2)CC1)NC(=O)Nc1ccccc1 (centres unmarked) [compound 89] | – | 1680
CC(=O)c1cccc(NC(=O)NC(CN2CCN(Cc3ccc(Cl)c(Cl)c3)CC2)C(C)C)c1 (centres unmarked) [compound 91] | – | 1890
Cc1ccc(NC(=O)N[C@H](CN2CCC(Cc3ccc(Cl)c(Cl)c3)CC2)C(C)(C)C)cc1 [compound 100] | – | 2470
CC(C)C(CN1CCN(Cc2ccc(Cl)cc2)CC1)NC(=S)Nc1cccc2ccccc12 (centres unmarked) [compound 109] | – | 2840
COc1ccccc1NC(=S)NC(CN1CCN(Cc2ccc(Cl)c(Cl)c2)CC1)C(C)C (centres unmarked) [compound 110] | – | 3050
CC(C)C(CN1CCN(Cc2ccc(Cl)cc2)CC1)NS(=O)(=O)c1ccc(C(F)(F)F)cc1 (centres unmarked) [compound 121] | – | 3520
